As usually defined, the solubility is the concentration that dissolves in the medium under given conditions.

One data set concerns the target PI3Kγ (Homo sapiens, UniProt P48736). Put plainly: ADP-Glo luminescent assay, enzymatic activity of PI3K gamma. In kind it is biochemical. The conditions noted are these: ATP 25 μM; read-out: PI3K gamma (nM) inhibitory activity (IC50). On the procedure:
The compounds would be tested from 1 or 10 μM, 3-fold dilution for 10 doses, in duplicate.
(§1) Compound preparation: Dilute a compound to 100× of the final desired highest inhibitor concentration in reaction by 100% DMSO. Transfer 100 μl of this compound dilution to a well in a 96-well plate and serially dilute it with DMSO for a total of 10 concentrations.
Kinase reaction: Prepare a solution of PI3K in 1× kinase buffer at 2-fold the final concentration of each reagent in the assay. Control wells contain 1× kinase buffer without enzyme. Prepare substrate solution of PIP2 substrate and ATP in 1× kinase reaction buffer at 2-fold of the final concentration. Add concentration substrate solution to each well to the final concentration. Cover the assay plate, shake to mix, and incubate at room temperature for 1 hour. Add 5 μl of ADP-Glo reagent to each well to stop the reaction. […] Add 10 ul Kinase Detection Reagent to each well, shake 1 min, equilibrate for 30 min before reading on a luminescence plate reader.
(§2) Data Analysis: Convert RLU values to percent inhibition values as Percent inhibition=(max−sample RLU)/(max−min)*100. “min”—no enzyme control; “max”—DMSO control. Fit the data in XLFit excel add-in version 5.4.0.8 to obtain IC50 values. Y=Bottom+(Top−Bottom)/(1+(IC50/X)^HillSlope).
Background: In ADP-Glo the light output rises with the ADP produced.

A short description of data set [1]: Kinetic solubility test in PBS pH7.4. In kind it is physicochemical. The conditions noted are these: aqueous buffer, kinetic from dmso stock; PBS pH 7.4, 25° C., 2 hours. The procedure: 15 μL of stock solution (10 mM) was placed in order into their proper 96-well rack. 485 μL of PBS pH7.4 was added into each vial of the cap-less Solubility Sample plate. The assay was performed in singlet. Add one stir stick to each vial and seal using a molded PTFE/Silicone plug. […] After completion of the 2 hours, the samples from the Solubility Sample plate were transferred into the filter plate. all the samples were filtered using the Vacuum Manifold. Aliquot of 5 μL was taken from the filtrate followed by addition of 495 μL of a mixture of H2O and acetonitrile containing internal standard (1:1). A certain proportion of ultrapure water was used to dilute the diluent according to the peak shape. The dilution factor was changed according to the solubility values and the LC-MS signal response.
Preparation of 3 μM standards (STD): From the 10 mM DMSO STD plate, 6 μL was transferred into the remaining empty plate, and then 194 μL of DMSO was added to that plate to have a STD concentration of 300 μM. From the 300 μM DMSO STD plate, 5 μL was transferred into the remaining empty plate, and then 495 μL of a mixture of H2O and acetonitrile containing internal standard (1:1) was added to that plate to have a final STD concentration of 3 μM. A certain proportion of ultrapure water was used to dilute the diluent according to the peak shape. The concentrations of the standard samples were changed according to the LC-MS signal response.
Procedure for sample analysis: The plate was placed into the well plate autosampler. The samples were evaluated by LC-MS/MS analysis.
Data analysis: All calculations were carried out using Microsoft Excel.
The filtrate was analyzed and quantified against a standard of known concentration using LC coupled with mass spectral peak identification and quantitation. Solubility values of the test compound and control compound were calculated as follows:
[formula] • Any value of the compounds that was not within the specified limits was rejected and the experiment was repeated.

For another data set, the target named is T1, PI3K gamma (Mus musculus, UniProt Q9JHG7).
T1 construct: endogenous in cells; host or cells: RAW264.7
Kind of data set: Raw264.7 cell assay: phosphorylation of AKT in C5a stimulated RAW264.7 cells (AlphaLISA). In kind it is cell-based. As to conditions: pAKT, read-out: PI3K gamma Raw264.7 cell (nM) cellular activity (IC50). On the procedure:
This study aims to determine the inhibitory effect of compounds on PI3K gamma and PI3K delta in corresponding cell based assays. PI3K gamma activity was reflected by phosphorylation of AKT in C5a stimulated RAW264.7 cells, and PI3K delta activity was reflected by phosphorylation of AKT in anti-IgM stimulated Raji cells. Phosphorylation of AKT in cells was determined using AlphaLISA technology from PerkinElmer.
Raw264.7 cell assay: Prepare Passage 15 Raw264.7 cell and add 6 μL of 30K cells per well in 384-well plate by multidrop. Centrifuge at 500 RPM for 30 s and incubate for 2 hours at 37° C., 5% CO2. Add 30 nL compound by echo and incubate for 30 min at 37° C., 5% CO2. […] Add 2 μL of 5× lysis buffer by multidrop, incubate for 10 min on a plate shaker. Add 5 μL acceptor mix provided in the kit, centrifuge at 1000 RPM for 1 min. Add 5 μL donor mix provided in the kit, centrifuge at 1000 RPM for 1 min and incubate in dark for 2 hours at 25° C. Read AlphaLISA signal on Envision.
Y=Bottom+(Top−Bottom)/(1+10^((Log IC50−X)*Hill Slope)) X: Log of cpd concentration Y: Inhibition

The target in another data set is PI3Kδ (Homo sapiens, UniProt O00329). Put plainly: ADP-Glo luminescent assay, enzymatic activity of PI3K delta. In kind it is biochemical. As to conditions: ATP 25 μM; read-out: PI3K delta (nM) inhibitory activity (IC50). On the procedure: Enzymatic activity of PI3K isoforms: Enzymatic activity of the class I PI3K isoforms in the presence of the compounds of Table 1 was measured using ADP-Glo luminescent assay against PI3Kα, PI3Kβ, PI3Kδ and PI3Kγ with ATP concentration at 25 μM. […] The compounds would be tested from 1 or 10 μM, 3-fold dilution for 10 doses, in duplicate.
as §1
Kinase reaction: Prepare a solution of PI3K in 1× kinase buffer at 2-fold the final concentration of each reagent in the assay. Control wells contain 1× kinase buffer without enzyme. Prepare substrate solution of PIP2 substrate and ATP in 1× kinase reaction buffer at 2-fold of the final concentration. Add concentration substrate solution to each well to the final concentration. Cover the assay plate, shake to mix, and incubate at room temperature for 1 hour. Add 5 μl of ADP-Glo reagent to each well to stop the reaction. Mix briefly with a quick spin, shake slowly on the shaker for 120 min. Add 10 ul Kinase Detection Reagent to each well, shake 1 min, equilibrate for 30 min before reading on a luminescence plate reader.
as §2

Values after ≈ are worked out from the molar mass of the structure shown.

T1 sequence (Q9JHG7 whole entry): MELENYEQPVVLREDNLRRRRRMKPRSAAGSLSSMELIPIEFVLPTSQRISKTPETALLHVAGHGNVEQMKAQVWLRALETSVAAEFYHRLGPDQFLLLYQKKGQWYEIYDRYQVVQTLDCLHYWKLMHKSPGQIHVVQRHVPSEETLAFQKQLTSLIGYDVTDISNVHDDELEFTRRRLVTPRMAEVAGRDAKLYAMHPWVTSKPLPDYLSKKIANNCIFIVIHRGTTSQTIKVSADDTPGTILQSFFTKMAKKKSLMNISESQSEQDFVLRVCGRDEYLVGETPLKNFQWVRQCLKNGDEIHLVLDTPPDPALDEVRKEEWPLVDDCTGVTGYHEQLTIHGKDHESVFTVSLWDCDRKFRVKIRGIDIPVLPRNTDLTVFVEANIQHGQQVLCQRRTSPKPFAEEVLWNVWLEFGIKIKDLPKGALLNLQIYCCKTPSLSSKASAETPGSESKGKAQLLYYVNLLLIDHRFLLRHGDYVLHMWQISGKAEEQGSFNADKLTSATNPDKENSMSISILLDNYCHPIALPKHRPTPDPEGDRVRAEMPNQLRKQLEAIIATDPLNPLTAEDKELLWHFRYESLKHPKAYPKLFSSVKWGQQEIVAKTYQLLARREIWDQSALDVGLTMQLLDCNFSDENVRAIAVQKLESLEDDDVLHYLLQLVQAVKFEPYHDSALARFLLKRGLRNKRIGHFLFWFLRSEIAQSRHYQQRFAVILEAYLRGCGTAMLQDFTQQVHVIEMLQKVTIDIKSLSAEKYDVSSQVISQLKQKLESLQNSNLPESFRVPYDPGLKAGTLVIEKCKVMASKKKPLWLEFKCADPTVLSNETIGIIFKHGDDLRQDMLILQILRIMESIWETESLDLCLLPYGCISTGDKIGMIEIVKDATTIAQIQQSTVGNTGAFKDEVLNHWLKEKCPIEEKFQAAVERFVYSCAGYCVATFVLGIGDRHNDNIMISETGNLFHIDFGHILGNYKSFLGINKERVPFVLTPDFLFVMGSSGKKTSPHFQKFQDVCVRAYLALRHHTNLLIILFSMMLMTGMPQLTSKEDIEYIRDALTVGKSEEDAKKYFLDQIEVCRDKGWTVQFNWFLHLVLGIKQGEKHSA
T1 sequence (Q5SW28 whole entry partner): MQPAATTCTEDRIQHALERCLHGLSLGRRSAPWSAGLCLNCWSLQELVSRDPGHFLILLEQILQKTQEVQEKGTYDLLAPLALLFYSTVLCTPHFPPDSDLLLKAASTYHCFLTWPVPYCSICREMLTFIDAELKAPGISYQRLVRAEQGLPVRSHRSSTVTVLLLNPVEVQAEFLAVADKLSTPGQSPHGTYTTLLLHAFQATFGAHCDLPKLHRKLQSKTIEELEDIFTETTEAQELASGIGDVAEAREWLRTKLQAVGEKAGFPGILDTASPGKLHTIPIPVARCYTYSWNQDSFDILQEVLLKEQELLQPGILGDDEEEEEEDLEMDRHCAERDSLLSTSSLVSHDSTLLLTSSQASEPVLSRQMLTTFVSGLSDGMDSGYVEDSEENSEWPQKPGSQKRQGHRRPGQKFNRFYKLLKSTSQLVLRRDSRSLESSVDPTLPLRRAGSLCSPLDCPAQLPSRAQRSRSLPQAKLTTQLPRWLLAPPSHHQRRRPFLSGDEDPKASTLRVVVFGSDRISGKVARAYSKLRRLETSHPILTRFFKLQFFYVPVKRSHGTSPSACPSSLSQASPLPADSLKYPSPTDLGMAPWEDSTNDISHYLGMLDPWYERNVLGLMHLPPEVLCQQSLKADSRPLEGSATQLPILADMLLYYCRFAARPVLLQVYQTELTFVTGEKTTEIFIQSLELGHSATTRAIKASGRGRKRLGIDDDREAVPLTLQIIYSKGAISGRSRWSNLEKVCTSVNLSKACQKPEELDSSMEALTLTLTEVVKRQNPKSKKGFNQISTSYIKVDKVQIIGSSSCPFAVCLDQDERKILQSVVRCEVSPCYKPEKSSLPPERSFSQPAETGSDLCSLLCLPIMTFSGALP
Chain of PI3Kδ (O00329 whole entry, species assumed, canonical isoform): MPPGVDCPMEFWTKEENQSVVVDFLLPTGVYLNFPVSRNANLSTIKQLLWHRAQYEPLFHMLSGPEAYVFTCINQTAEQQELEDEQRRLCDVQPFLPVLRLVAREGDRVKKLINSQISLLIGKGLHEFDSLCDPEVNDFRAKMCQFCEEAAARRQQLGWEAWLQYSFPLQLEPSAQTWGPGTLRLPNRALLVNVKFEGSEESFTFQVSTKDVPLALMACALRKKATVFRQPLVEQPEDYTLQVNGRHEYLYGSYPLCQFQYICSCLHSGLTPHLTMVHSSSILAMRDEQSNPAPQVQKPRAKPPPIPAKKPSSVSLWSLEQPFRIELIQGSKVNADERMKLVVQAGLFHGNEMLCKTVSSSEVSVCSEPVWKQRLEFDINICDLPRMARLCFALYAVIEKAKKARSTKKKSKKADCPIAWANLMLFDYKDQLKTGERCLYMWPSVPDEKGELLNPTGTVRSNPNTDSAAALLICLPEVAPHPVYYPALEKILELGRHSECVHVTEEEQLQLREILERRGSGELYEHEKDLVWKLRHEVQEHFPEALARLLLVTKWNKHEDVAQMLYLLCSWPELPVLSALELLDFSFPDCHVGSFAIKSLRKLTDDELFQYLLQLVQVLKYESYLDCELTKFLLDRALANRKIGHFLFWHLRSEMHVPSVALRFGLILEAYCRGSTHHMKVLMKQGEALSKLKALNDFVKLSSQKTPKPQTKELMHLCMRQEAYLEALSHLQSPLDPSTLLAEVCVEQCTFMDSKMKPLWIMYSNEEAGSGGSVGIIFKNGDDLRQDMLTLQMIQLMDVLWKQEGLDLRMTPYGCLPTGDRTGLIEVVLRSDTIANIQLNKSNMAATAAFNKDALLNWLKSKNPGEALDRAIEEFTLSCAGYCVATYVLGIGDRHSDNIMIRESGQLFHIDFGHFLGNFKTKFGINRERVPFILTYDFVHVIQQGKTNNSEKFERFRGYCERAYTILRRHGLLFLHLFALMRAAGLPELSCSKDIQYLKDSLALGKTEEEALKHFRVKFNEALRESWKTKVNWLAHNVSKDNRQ
Chain of PI3Kδ (P27986 whole entry partner, species assumed, canonical isoform): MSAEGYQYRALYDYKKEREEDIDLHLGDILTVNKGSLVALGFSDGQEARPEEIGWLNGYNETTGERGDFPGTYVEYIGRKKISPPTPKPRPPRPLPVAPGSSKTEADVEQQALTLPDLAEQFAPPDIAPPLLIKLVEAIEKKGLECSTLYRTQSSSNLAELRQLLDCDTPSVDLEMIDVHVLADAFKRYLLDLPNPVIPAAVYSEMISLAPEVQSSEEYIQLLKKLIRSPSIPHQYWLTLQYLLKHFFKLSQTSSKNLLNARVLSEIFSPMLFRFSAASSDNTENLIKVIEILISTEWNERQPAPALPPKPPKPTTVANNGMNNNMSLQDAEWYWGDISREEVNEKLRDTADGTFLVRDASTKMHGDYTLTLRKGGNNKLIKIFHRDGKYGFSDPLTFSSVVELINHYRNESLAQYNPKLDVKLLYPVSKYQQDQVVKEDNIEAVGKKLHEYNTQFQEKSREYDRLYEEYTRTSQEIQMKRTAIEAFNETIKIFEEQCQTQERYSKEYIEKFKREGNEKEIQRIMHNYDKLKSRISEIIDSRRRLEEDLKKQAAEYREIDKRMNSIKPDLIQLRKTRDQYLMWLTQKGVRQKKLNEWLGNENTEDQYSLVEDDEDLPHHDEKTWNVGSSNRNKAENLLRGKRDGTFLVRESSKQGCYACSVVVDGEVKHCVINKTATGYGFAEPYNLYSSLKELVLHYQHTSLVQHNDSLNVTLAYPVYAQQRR
Chain of PI3Kγ (P48736 whole entry, species assumed): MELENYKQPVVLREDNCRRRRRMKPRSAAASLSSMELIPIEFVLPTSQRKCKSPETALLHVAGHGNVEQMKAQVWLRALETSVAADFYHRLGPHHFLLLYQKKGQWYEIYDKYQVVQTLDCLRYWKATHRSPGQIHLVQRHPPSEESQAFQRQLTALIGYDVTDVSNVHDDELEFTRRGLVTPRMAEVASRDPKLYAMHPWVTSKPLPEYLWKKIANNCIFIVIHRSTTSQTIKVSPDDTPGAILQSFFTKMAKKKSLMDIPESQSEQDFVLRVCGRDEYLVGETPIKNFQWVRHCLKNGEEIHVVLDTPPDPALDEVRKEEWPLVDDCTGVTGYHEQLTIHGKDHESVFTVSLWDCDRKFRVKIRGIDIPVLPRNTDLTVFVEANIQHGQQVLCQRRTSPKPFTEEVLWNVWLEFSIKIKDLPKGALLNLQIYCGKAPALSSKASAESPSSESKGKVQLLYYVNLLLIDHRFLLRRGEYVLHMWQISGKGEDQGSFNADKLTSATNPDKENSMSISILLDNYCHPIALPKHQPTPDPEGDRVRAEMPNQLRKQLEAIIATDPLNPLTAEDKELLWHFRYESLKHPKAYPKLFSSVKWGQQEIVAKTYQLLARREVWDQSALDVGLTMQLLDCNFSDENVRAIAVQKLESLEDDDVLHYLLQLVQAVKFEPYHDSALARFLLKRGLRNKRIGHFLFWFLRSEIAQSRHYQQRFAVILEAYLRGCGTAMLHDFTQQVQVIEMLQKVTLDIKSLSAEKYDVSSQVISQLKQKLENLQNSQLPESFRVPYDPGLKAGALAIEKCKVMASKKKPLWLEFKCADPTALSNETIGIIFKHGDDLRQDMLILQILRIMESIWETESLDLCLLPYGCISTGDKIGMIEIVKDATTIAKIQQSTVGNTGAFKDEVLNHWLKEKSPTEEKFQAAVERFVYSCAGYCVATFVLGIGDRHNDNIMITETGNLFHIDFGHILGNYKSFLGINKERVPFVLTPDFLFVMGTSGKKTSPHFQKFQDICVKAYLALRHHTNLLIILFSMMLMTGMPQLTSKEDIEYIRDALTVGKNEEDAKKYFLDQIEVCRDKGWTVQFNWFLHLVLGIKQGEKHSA

For `CC(=O)Nc1nc(C)c(-c2cc3c(c(N4CCC(O)CC4)n2)C(=O)N([C@@H](C)C2CC2)C3)s1` [Compound 46, (S)-N-(5-(2-(1-cyclopropylethyl)-4-(4-hydroxypiperidin-1-yl)-3-oxo-2,3-dihydro-1H-pyrrolo[3,4-c]pyridin-6-yl)-4-methylthiazol-2-yl)acetamide], the IC50 on PI3Kγ is 0.7 nM; on PI3K gamma it was 3.8 nM. The solubility at 2 h in data set [1] was determined as 6.1 µM (≈ 2.78 µg/mL).

Consider `COCCOc1nc(-c2sc(NC(C)=O)nc2C)cc2c1C(=O)N([C@@H](C)C1CC1)C2` [Compound 42, (S)-N-(5-(2-(1-cyclopropylethyl)-4-(2-methoxyethoxy)-3-oxo-2,3-dihydro-1H-pyrrolo[3,4-c]pyridin-6-yl)-4-methylthiazol-2-yl)acetamide], for which the IC50 at PI3Kγ is 1.8 nM. This molecule registered a solubility at 2 h in data set [1] of 2.6 µM (≈ 1.12 µg/mL).

`CCC(=O)Nc1nc(C)c(-c2cc3c(c(P(C)(C)=O)c2)C(=O)N([C@@H](C)C2CC2)C3)s1` [Compound 2, (S)-N-(5-(2-(1-cyclopropylethyl)-7-(dimethylphosphoryl)-1-oxoisoindolin-5-yl)-4-methylthiazol-2-yl)propionamide]: the IC50 was 3.7 nM on PI3Kγ and > 1000 nM at PI3Kδ.

Turning to `CC(=O)Nc1nc(C)c(-c2cc3c(c(S(C)(=O)=O)n2)C(=O)N([C@@H](C)C2CC2)C3)s1` [Compound 19, (S)-N-(5-(2-(1-cyclopropylethyl)-4-(methylsulfonyl)-3-oxo-2,3-dihydro-1H-pyrrolo[3,4-c]pyridin-6-yl)-4-methylthiazol-2-yl)acetamide], the IC50 on PI3Kγ is 1.6 nM; at PI3Kδ it was > 1000 nM; on PI3K gamma it was 28 nM.

Turning to `CC(=O)Nc1nc(C)c(-c2ccc3c(c2)CN([C@@H](C)C2CC2)C3=O)s1` [Compound 10, (S)-N-(5-(2-(1-cyclopropylethyl)-1-oxoisoindolin-5-yl)-4-methylthiazol-2-yl)acetamide], the IC50 is 2.5 nM at PI3Kγ, 359 nM at PI3Kδ and 290 nM on PI3K gamma.

Turning to `CC(=O)Nc1nc(C)c(-c2cc3c(c(N4CC(O)C4)n2)C(=O)N([C@@H](C)C2CC2)C3)s1` [Compound 48, (S)-N-(5-(2-(1-cyclopropylethyl)-4-(3-hydroxyazetidin-1-yl)-3-oxo-2,3-dihydro-1H-pyrrolo[3,4-c]pyridin-6-yl)-4-methylthiazol-2-yl)acetamide], the IC50 at PI3Kγ worked out at 0.84 nM; at PI3K gamma it was 14 nM.

Consider `CC(=O)Nc1nc(C)c(-c2cc3c(c(NC(=O)C4CC4)n2)C(=O)N([C@@H](C)C2CC2)C3)s1` [Compound 26, (S)-N-(6-(2-acetamido-4-methylthiazol-5-yl)-2-(1-cyclopropylethyl)-3-oxo-2,3-dihydro-M-pyrrolo[3,4-c]pyridin-4-yl)cyclopropanecarboxamide], for which the IC50 at PI3Kγ is 1.4 nM; on PI3Kδ, > 1000 nM.

Regarding `CC(=O)Nc1nc(C)c(-c2cc3c(c(C(=O)N(C)C)n2)C(=O)N([C@@H](C)C2CC2)C3)s1` [Compound 29, (S)-6-(2-acetamido-4-methylthiazol-5-yl)-2-(1-cyclopropylethyl)-N,N-dimethyl-3-oxo-2,3-dihydro-1H-pyrrolo[3,4-c]pyridine-4-carboxamide], the values for the IC50 on PI3Kγ and at PI3K gamma were 2.5 nM and 3240 nM, respectively.

`CC(=O)Nc1nc(C)c(-c2cc3c(c(N4CCNCC4)n2)C(=O)N([C@@H](C)C2CC2)C3)s1` [Compound 39, (S)-N-(5-(2-(1-cyclopropylethyl)-3-oxo-4-(piperazin-1-yl)-2,3-dihydro-1H-pyrrolo[3,4-c]pyridin-6-yl)-4-methylthiazol-2-yl)acetamide]: the IC50 was 3.7 nM on PI3Kγ and 271 nM at PI3K gamma.

Turning to `CC(=O)Nc1nc(C)c(-c2cc3c(c(C(C)N4CCOCC4)n2)C(=O)N([C@@H](C)C2CC2)C3)s1` (stereo partly drawn) [Compound 55, N-(5-(2-((S)-1-cyclopropylethyl)-4-(1-morpholinoethyl)-3-oxo-2,3-dihydro-1H-pyrrolo[3,4-c]pyridin-6-yl)-4-methylthiazol-2-yl)acetamide], the values for the IC50 at PI3Kγ and at PI3K gamma were 1.7 nM and 18 nM, respectively.

Turning to `CC(=O)Nc1nc(C)c(-c2cc3c(c(C)n2)C(=O)N([C@@H](C)C2CC2)C3)s1` [Compound 27, (S)-N-(5-(2-(1-cyclopropylethyl)-4-methyl-3-oxo-2,3-dihydro-1H-pyrrolo[3,4-c]pyridin-6-yl)-4-methylthiazol-2-yl)acetamide], the IC50 on PI3Kγ and on PI3K gamma was 29 nM throughout.

In the case of `C[C@H](NC(=O)c1c(N)nn2cccnc12)c1cc2cccc(C#Cc3cnn(C)c3)c2c(=O)n1-c1ccccc1` [IPI-549, reference compound], the solubility at 2 h in data set [1] came out at 6.4 µM (≈ 3.38 µg/mL).

As to `CC(=O)Nc1ncc(-c2cc3c(c(N4CCOCC4)n2)C(=O)N([C@@H](C)C2CC2)C3)s1` [Compound 41, (S)-N-(5-(2-(1-cyclopropylethyl)-4-morpholino-3-oxo-2,3-dihydro-1H-pyrrolo[3,4-c]pyridin-6-yl)thiazol-2-yl)acetamide], the IC50 at PI3Kγ was 2.3 nM. In data set [1], this molecule showed a solubility at 2 h of 3.5 µM (≈ 1.5 µg/mL).

For `CC(=O)Nc1nc(C)c(-c2cc3c(c(N4CCN(C(C)=O)CC4)n2)C(=O)N([C@@H](C)C2CC2)C3)s1` [Compound 40, (S)-N-(5-(4-(4-acetylpiperazin-1-yl)-2-(1-cyclopropylethyl)-3-oxo-2,3-dihydro-1H-pyrrolo[3,4-c]pyridin-6-yl)-4-methylthiazol-2-yl)acetamide], the IC50 on PI3Kγ was found to be 2 nM; at PI3K gamma, 6.3 nM. Moreover, the solubility at 2 h in data set [1] is 25 µM (≈ 12.1 µg/mL).

As for `CC(=O)Nc1nc(C)c(-c2cc3c(c([S+](C)[O-])c2)C(=O)N(C(C)(C)C)C3)s1` (racemic) [Compound 17, N-(5-(2-(tert-butyl)-7-(methylsulfinyl)-1-oxoisoindolin-5-yl)-4-methylthiazol-2-yl)acetamide], the IC50 on PI3Kγ is 4.5 nM; at PI3K gamma, 118 nM.

Turning to `CNC(=O)c1nc(-c2sc(NC(C)=O)nc2C)cc2c1C(=O)N([C@@H](C)C1CC1)C2` [Compound 32, (S)-6-(2-acetamido-4-methylthiazol-5-yl)-2-(1-cyclopropylethyl)-N-methyl-3-oxo-2,3-dihydro-1H-pyrrolo[3,4-c]pyridine-4-carboxamide], the IC50 on PI3Kγ is 2.2 nM; on PI3K gamma it was 208 nM.

The values are drawn from patent publication US11542262B2, “Phosphatidylinositol 3-kinase inhibitors” (NANJING ZHENGXIANG PHARMACEUTICALS CO., LTD., priority 2019, dated 2023).
